{"source": "paper PMC4452251", "about": "“Characterization of a Thioredoxin-1 Gene from Taenia solium and Its Encoding Product” (BioMed Research International, 2015)", "biological_target": "T1, rTsTrx-1 (Taenia solium thioredoxin-1) (Taenia solium, UniProt A0A0A1E9C2)", "T1 construct": "gene Trx; full-length coding region, 107 residues, 11,579 Da, active site CGPC; N-terminal six-histidine tag (pRSETB), no tag removal stated", "T1 sequence (A0A0A1E9C2 1-107)": "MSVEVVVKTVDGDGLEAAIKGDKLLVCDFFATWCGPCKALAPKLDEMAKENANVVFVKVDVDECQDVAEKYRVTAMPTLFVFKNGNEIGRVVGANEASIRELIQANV", "assay": "DTT/insulin reduction turbidity assay at […] nm", "type": "biochemical", "details": "20 ug enzyme (1.5 uM) preincubated with MG 30 min at 37 C; insulin 160 uM, 1 mM DTT, 2 mM EDTA, potassium phosphate pH 6.5"}
{"smiles": "CC(=O)C=O", "note": "[MG, methylglyoxal]", "values": [{"measurement": "% decrease of activity at 3 mM", "result": 25, "unit": "%"}]}
